Reference: patent US20160368898A1, “2-PYRIDYLOXY-4-METHYL OREXIN RECEPTOR ANTAGONISTS” (MERCK SHARP & DOHME CORP., priority 2013, published 2016)

Legend:
[1] = target: T1, human orexin-2 receptor (hOX2R) (Homo sapiens, UniProt O43614); experiment: FLIPR Ca2+ Flux Assay, CHO cells expressing the human orexin-2 receptor; assay type: cell-based; settings: agonist 70 pM Ala-6,12 human orexin-A
T1 construct: expressed in transfected cells; host or cells: CHO cells (grown under G418)
T1 sequence (O43614 1-444): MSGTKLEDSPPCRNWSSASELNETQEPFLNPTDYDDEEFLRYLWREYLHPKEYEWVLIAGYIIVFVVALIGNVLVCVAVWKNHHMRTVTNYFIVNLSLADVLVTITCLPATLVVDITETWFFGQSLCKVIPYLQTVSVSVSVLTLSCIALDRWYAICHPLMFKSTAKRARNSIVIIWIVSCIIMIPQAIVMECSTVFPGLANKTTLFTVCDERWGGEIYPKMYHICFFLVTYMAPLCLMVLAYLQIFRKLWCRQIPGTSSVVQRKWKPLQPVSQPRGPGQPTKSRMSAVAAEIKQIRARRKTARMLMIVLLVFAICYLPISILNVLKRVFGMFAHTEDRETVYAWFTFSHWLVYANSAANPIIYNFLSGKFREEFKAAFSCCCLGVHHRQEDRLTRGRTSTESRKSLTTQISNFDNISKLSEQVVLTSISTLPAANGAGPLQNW
Experimental: The utility of the compounds in accordance with the present invention as orexin receptor OX1R and/or OX2R antagonists may be readily determined without undue experimentation by methodology well known in the art, including the “FLIPR Ca^2+ Flux Assay” (Okumura et al., Biochem. Biophys. Res. Comm. 280:976-981, 2001). In a typical experiment the OX1 and OX2 receptor antagonistic activity of the compounds of the present invention was determined in accordance with the following experimental method. For intracellular calcium measurements, Chinese hamster ovary (CHO) cells expressing the rat orexin-1 receptor or the human orexin-2 receptor, are grown in Iscove's modified DMEM containing 2 mM L-glutamine, […], 1% hypoxanthine-thymidine supplement, 100 U/ml penicillin, 100 μg/ml streptomycin and 10% heat-inactivated fetal calf serum (FCS). The cells are seeded at 20,000 cells/well into Becton-Dickinson black 384-well clear bottom sterile plates coated with poly-D-lysine. All reagents were from GIBCO-Invitrogen Corp. The seeded plates are incubated overnight at 37° C. and 5% CO2. Ala-6,12 human orexin-A as the agonist is prepared as a 1 mM stock solution in 1% bovine serum albumin (BSA) and diluted in assay buffer (HBSS containing 20 mM HEPES, 0.1% BSA and 2.5 mM probenecid, pH7.4) for use in the assay at a final concentration of 70 pM. Test compounds are prepared as 10 mM stock solution in DMSO, then diluted in 384-well plates, first in DMSO, then assay buffer. On the day of the assay, cells are washed 3 times with 100 μl assay buffer and then incubated for 60 min (37° C., 5% CO2) in 60 μl assay buffer containing 1 μM Fluo-4AM ester, 0.02% pluronic acid, and 1% BSA. The dye loading solution is then aspirated and cells are washed 3 times with 100 μl assay buffer. 30 μl of that same buffer is left in each well. Within the Fluorescent Imaging Plate Reader (FLIPR, Molecular Devices), test compounds are added to the plate in a volume of 25 μl, incubated for 5 min and finally 25 μl of agonist is added. Fluorescence is measured for each well at 1 second intervals for 5 minutes and the height of each fluorescence peak is compared to the height of the fluorescence peak induced by 70 pM Ala-6,12 orexin-A with buffer in place of antagonist. For each antagonist, IC50 value (the concentration of compound needed to inhibit 50% of the agonist response) is determined. Alternatively, compound potency can be assessed by a radioligand binding assay (described in Bergman et. al. Bioorg. Med. Chem. Lett. 2008, 18, 1425-1430) in which the inhibition constant (Ki) is determined in membranes prepared from CHO cells expressing either the OX1 or OX2 receptor. The intrinsic orexin receptor antagonist activity of a compound which may be used in the present invention may be determined by these assays.

[2] = target: T2, hOX1R (Homo sapiens, UniProt O43613); experiment: FLIPR Ca2+ Flux Assay, CHO cells expressing the orexin-1 receptor; assay type: cell-based; settings: agonist 70 pM Ala-6,12 human orexin-A
T2 construct: expressed in transfected cells; host or cells: CHO cells (grown under G418)
T2 sequence (O43613 1-425): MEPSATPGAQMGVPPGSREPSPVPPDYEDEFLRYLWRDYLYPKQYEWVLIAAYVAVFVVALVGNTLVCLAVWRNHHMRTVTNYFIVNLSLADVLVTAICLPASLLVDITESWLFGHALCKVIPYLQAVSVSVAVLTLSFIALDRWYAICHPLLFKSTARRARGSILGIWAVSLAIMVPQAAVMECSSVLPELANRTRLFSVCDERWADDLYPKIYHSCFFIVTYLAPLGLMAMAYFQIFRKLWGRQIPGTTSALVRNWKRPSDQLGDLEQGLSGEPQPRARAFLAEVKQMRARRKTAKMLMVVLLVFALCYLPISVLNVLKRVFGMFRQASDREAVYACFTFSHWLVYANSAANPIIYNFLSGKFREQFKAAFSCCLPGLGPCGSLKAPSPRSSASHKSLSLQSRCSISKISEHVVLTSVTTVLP

IC50 [1] [nM] | IC50 [2] [nM] | Compound
16 |  | Cc1ccnc(O[C@@H]2CC[C@@H](C)N(C(=O)c3ccccc3-n3nccn3)C2)c1 [Example 1, 4-Methyl-2-{[(3R,6R)-6-methyl-1-{[2-(2H-1,2,3-triazol-2-yl)phenyl]carbonyl}piperidin-3-yl]oxy}pyridine]
17 | 1480 | Cc1ccnc(O[C@@H]2CC[C@@H](C)N(C(=O)c3ccccc3-n3ncnn3)C2)c1 [Example 2, (2-(2H-Tetrazol-2-yl)phenyl)((2R,5R)-2-methyl-5-((4-methylpyridin-2-yl)oxy)piperidin-1-y1)methanone]
44 | 1670 | Cc1ccnc(O[C@@H]2CC[C@@H](C)N(C(=O)c3ccsc3-n3nccn3)C2)c1 [Example 3, 4-methyl-2-{[(3R,6R)-6-methyl-1-{[2-(2H-1,2,3-triazol-2-yl)thiophen-3-yl]carbonyl}piperidin-3-yl]oxy}pyridine]
28 | 875 | Cc1ccnc(O[C@@H]2CC[C@@H](C)N(C(=O)c3c(F)cccc3-n3nccn3)C2)c1 [Example 4, 2-{[(3R,6R)-1-{[2-fluoro-6-(2H-1,2,3-triazol-2-yl)phenyl]carbonyl}-6-methylpiperidin-3-yl]oxy}-4-methylpyridine]
29 | 1620 | Cc1ccnc(O[C@@H]2CC[C@@H](C)N(C(=O)c3ccc(Cl)cc3-n3nccn3)C2)c1 [Example 5, 2-{[(3R,6R)-1-{[4-chloro-2-(2H-1,2,3-triazol-2-yl)phenyl]carbonyl}-6-methylpiperidin-3-yl]oxy}-4-methylpyridine]
35 | 2290 | Cc1ccnc(O[C@@H]2CC[C@@H](C)N(C(=O)c3ccc(F)cc3-n3nccn3)C2)c1 [Example 6, 2-{[(3R,6R)-1-{[4-fluoro-2-(2H-1,2,3-triazol-2-yl)phenyl]carbonyl}-6-methylpiperidin-3-yl]oxy}-4-methylpyridine]
59 | 2340 | Cc1ccnc(O[C@@H]2CC[C@@H](C)N(C(=O)c3ccc(C)cc3-n3nccn3)C2)c1 [Example 7, 4-methyl-2-{[(3R,6R)-6-methyl-1-{[4-methyl-2-(2H-1,2,3-triazol-2-yl)phenyl]carbonyl}piperidin-3-yl]oxy}pyridine]
45 | 1770 | Cc1ccnc(O[C@@H]2CC[C@@H](C)N(C(=O)c3ncccc3-n3nccn3)C2)c1 [Example 9, 2-({(2R,5R)-2-methyl-5-[(4-methylpyridin-2-yl)oxy]piperidin-1-yl}carbonyl)-3-(2H-1,2,3-triazol-2-yl)pyridine]
28 | 1210 | Cc1ccnc(O[C@@H]2CC[C@@H](C)N(C(=O)c3ccccc3C3(C#N)CC3)C2)c1 [Example 10, 1-[2-({(2R,5R)-2-methyl-5-[(4-methylpyridin-2-yl)oxy]piperidin-1-yl}carbonyl)phenyl]cyclopropanecarbonitrile]
32 | 1050 | Cc1ccnc(O[C@@H]2CC[C@@H](C)N(C(=O)c3cc(F)ccc3-n3nccn3)C2)c1 [Example 11, 2-{[(3R,6R)-1-{[5-fluoro-2-(2H-1,2,3-triazol-2-yl)phenyl]carbonyl}-6-methylpiperidin-3-yl]oxy}-4-methylpyridine]
299 | 9510 | Cc1ccnc(O[C@@H]2CC[C@@H](C)N(C(=O)c3ccc(F)cc3-c3nc(C)no3)C2)c1 [Example 12, 2-{[(3R,6R)-1-{[4-fluoro-2-(3-methyl-1,2,4-oxadiazol-5-yl)phenyl]carbonyl}-6-methylpiperidin-3-yl]oxy}-4-methylpyridine]
26 | 964 | Cc1ccnc(O[C@@H]2CC[C@@H](C)N(C(=O)c3cccc(F)c3-n3nccn3)C2)c1 [Example 13, 2-{[(3R,6R)-1-{[3-fluoro-2-(2H-1,2,3-triazol-2-yl)phenyl]carbonyl}-6-methylpiperidin-3-yl]oxy}-4-methylpyridine]
73 | > 10000 | Cc1ccnc(O[C@@H]2CC[C@@H](C)N(C(=O)c3ccccc3CS(C)(=O)=O)C2)c1 [Example 14, 4-methyl-2-{[(3R,6R)-6-methyl-1-({2-[(methylsulfonyl)methyl]phenyl}carbonyl)piperidin-3-yl]oxy}pyridine]
226 | > 10000 | COCc1ccccc1C(=O)N1C[C@H](Oc2cc(C)ccn2)CC[C@H]1C [Example 15, 2-{[(3R,6R)-1-{[2-(methoxymethyl)phenyl]carbonyl}-6-methylpiperidin-3-yl]oxy}-4-methylpyridine]
40 | 3100 | Cc1ccnc(O[C@@H]2CC[C@@H](C)N(C(=O)c3nccnc3-c3ccccn3)C2)c1 [Example 16, 2-({(2R,5R)-2-methyl-5-[(4-methylpyridin-2-yl)oxy]piperidin-1-yl}carbonyl)-3-pyridin-2-ylpyrazine]
33 | 1750 | Cc1ccnc(O[C@@H]2CC[C@@H](C)N(C(=O)c3cccnc3-n3cc(C)cn3)C2)c1 [Example 17, 3-({(2R,5R)-2-methyl-5-[(4-methylpyridin-2-yl)oxy]piperidin-1-yl}carbonyl)-2-(4-methyl-1H-pyrazol-1-yl)pyridine]
106 | 7030 | Cc1ccnc(O[C@@H]2CC[C@@H](C)N(C(=O)c3ncccc3-c3noc(C)n3)C2)c1 [Example 18, 2-({(2R,5R)-2-methyl-5-[(4-methylpyridin-2-yl)oxy]piperidin-1-yl}carbonyl)-3-(5-methyl-1,2,4-oxadiazol-3-yl)pyridine]
27 | 980 | Cc1ccnc(O[C@@H]2CC[C@@H](C)N(C(=O)c3ccccc3-c3ncccn3)C2)c1 [Example 19, ((2R,5R)-2-methyl-5-((4-methylpyridin-2-yl)oxy)piperidin-1-yl)(2-(pyrimidin-2-yl)phenyl)methanone]
42 | 1580 | Cc1ccnc(O[C@@H]2CC[C@@H](C)N(C(=O)c3ccc(F)cc3-c3ncccn3)C2)c1 [Example 20, 2-[5-fluoro-2-({(2R,5R)-2-methyl-5-[(4-methylpyridin-2-yl)oxy]piperidin-1-yl}carbonyl)phenyl]pyrimidine]
69 | 2110 | Cc1ccnc(O[C@@H]2CC[C@@H](C)N(C(=O)c3ccsc3-c3ncccn3)C2)c1 [Example 21, 2-[3-({(2R,5R)-2-methyl-5-[(4-methylpyridin-2-yl)oxy]piperidin-1-yl}carbonyl)thiophen-2-yl]pyrimidine]

Compound | IC50 [1] [nM] | IC50 [2] [nM]
COc1ccc(C(=O)N2C[C@H](Oc3cc(C)ccn3)CC[C@H]2C)c(-n2nccn2)n1 [Example 8, 6-methoxy-3-({(2R,5R)-2-methyl-5-[(4-methylpyridin-2-yl)oxy]piperidin-1-yl}carbonyl)-2-(2H-1,2,3-triazol-2-yl)pyridine] | 117 | > 10000
